From patent US11390543B2, “Sterilization method” (NEWSOUTH INNOVATIONS PTY LIMITED, priority 2017, dated 2022)
Several values for one entry are separate records, joined by “and”; a condition that tells them apart may be missing. Identical values can stand only once. Like-named read-outs stand apart in the source and are kept apart here. Each block holds one molecule with its values, some of them ahead of it.

Tests used:
[1] = pH of the solution measured during bubbling experiments; type: physicochemical; settings: for pH: […] NaCl
Experimental: The solubility at 52° C. (for viruses) and 43° C. (for E. coli) of the different gases used were obtained from literature values (http://www.engineeringtoolbox.com). The pH values were measured during the experiments and the Zeta potential values were measured during the experiments at a virus concentration of 10^8 per ml and E. coli concentration of 10^7 per ml.

[2] = cited from earlier work
[3] = tested on: Escherichia coli C-3000 (ATCC15597); test: E. coli inactivation by bubbling gas through 0.17 M NaCl solution in bubble column evaporator, plaque assay; type: cell-based
[4] = tested on: MS2 bacteriophage (ATCC 15597-B1); test: MS2 virus inactivation by bubbling gas through 0.17 M NaCl solution in bubble column evaporator, double layer plaque assay; type: cell-based; settings: for MS2 virus inactivation, log reduction: inlet gas temperature 200° C., after 37.5 min; for MS2 virus log reduction: as time approached 10 mins
Experimental: MS2 bacteriophage (ATCC 15597-B1) was chosen as the model virus to evaluate the efficiency of methods of inactivation of viruses. MS2 is usually quantified by counting infectious units via a standard plaque assay that is commonly used for detection of MS2 in treated drinking water and waste-water.
Analysis of virus inactivation was carried out using the optimized Double Layer Plaque Assay technique described in Cormier et al, that detects only infectious viruses by using E. coli as their host.
A specific optimized Double Layer Plaque Assay technique as described in Cormier et al was used to assess the concentration of active MS2 viruses. This plaque assay method is commonly used for detection of MS2 in treated drinking water, wastewater and marine water. The water quality is assessed based on the ability of bacteriophages to kill the host bacteria and allow phages to propagate in a confluent lawn of bacterial host cells immobilized in a layer of agar.
A freeze-dried vial of MS2 bacteriophage was acquired from the American Type Culture Collection. Bacteriophage MS2 (ATCC 15597-B1) was replicated using Escherichia coli C-3000 (ATCC 15597) according to the International Standard ISO 10705-1 [31] and the Ultraviolet disinfection guidance manual of the United States Environmental Protection Agency. The zeta-potential of the MS2 viruses in 0.17 M NaCl solution with different gas bubbles was measured using a Malvern Zetasizer nano series instrument.
The gases were pumped through the electrical heater that maintained the gas temperature just above the sinter surface at the base of the bubble column evaporator at a particular temperature, depending on the experiment. The base of the bubble column evaporator was fitted with a 40-100 μm pore size glass sinter (type 2) of 135 mm diameter.
Once the aqueous solution was poured into the column, the temperature of the solution was measured with a thermocouple in the centre of the column solution. The gas was then passed through the sinter into the 300 ml solution to inactivate MS2 viruses or E. coli (in separate experiments). […]
Further experiments were also performed using MS2 virus in a 0.17 M NaCl solution (initial temperature of about 22° C.) in the BCE, with CO2 gas at different inlet temperatures (205° C., 150° C., 100° C., 11° C. and 20° C.) and with CO2 gas having an inlet temperature of 22° C. at different flow rates (27 l/min and 20 l/min).
Once the solutions with known concentration of coliphage and E. coli were prepared, experiments were conducted to study the inactivation of the coliphage with different gases and inlet gas temperatures. 1.3 ml samples were collected from 10 to 15 mm above the central area of the sinter every 6 minutes during 36 minutes for the virus experiments and every 2 min for the E. coli experiments. 0.07 ml of each sample was spotted in triplicate following the double layer plaque assay technique.
Plaque counts were performed for all 18-21 plates of each of the experiments. The mean and the standard deviation of each triplicated sample using a virus or bacteria survival factor: Log10(PFU/PFU0), where PFU0 is the initial number of PFU per sample and PFU is the PFU per sample after an exposure time in minutes. When plotted, a second order polynomial distribution was applied to fit the survival curves.

E. coli [5] = settings: pH 4.2, stirred beaker, […] NaCl, 22° C., no bubbling
Experimental: (§1) To evaluate the effect of solution pH on the inactivation of MS2 bacteriophage and E. coli experiments, comparison tests using 0.17 M NaCl solution at pH 4.1, were carried out in a separate beaker, in a water bath. During these experiments, samples were regularly taken out from the beaker and analysed as before.
(§2) To determine if the reduction in pH, due to dissolved CO2 (equations 1, 2, 3 and 4), was related to its disinfectant effects, two experiments with carbonic acid (H2CO3) at pH 4.2 were conducted in a continuous stirred beaker, one for viruses and another one for bacteria.
(§3) Carbonic acid (H2CO3) was produced by bubbling 27 l/min. of pure CO2 through the 0.17 M NaCl solution during 10 minutes at 22° C. […] Some authors describe a small, low pH inactivation effect on microbial cells, since membranes stop protons from penetration but low pH makes membrane more permeable to other substances like CO2 due to the chemical modification on the phospholipid bilayer of membranes.

MS2 bacteriophage = settings: pH 4.2, stirred beaker, […] NaCl, 22° C., no bubbling
Experimental: as §1, §2, §3

E. coli [6] = settings: cited from earlier work
MS2 virus = settings: 1 to 2 M of NaCl; cited from earlier work
[7] = E. coli experiments, gases at 150° C. (combustion gas 58° C.)
[8] = MS2 experiments, gases at 200° C. (combustion gas 60° C.)
[9] = in water at 43° C., 1 atm (E. coli section)
[10] = in water at 52° C., 1 atm (virus section)
[11] = inlet gas temperature 150° C., after 10 min

pH [1, 7]: 6.0
pH [1, 8]: 6.0
SMILES: [Ar] [Argon]
Solubility [2, 9]: 0.040 Grams dissolved in 1 Kg of wat
Solubility [2, 10]: 0.035 Grams dissolved in 1 Kg of wat
E. coli inactivation, log reduction [3, 11]: 0.40 log
MS2 virus inactivation, log reduction [4]: 1.5 log

pH [1, 7]: 4.0
pH [1, 8]: 4.0
pH of the water when using CO2 gas in the bubble column ([1]; dropped from 5.9 in less than 45 seconds): 4.2
SMILES: O=C=O [Carbon dioxide]
Solubility [2, 9]: 0.950 Grams dissolved in 1 Kg of wat
Solubility [2, 10]: 0.800 Grams dissolved in 1 Kg of wat
E. coli inactivation, log reduction ([3]; inlet gas temperature 150° C., after 10 min, listed as CO2): 2.84 log and 2.6 log
MS2 virus log-reduction ([4]; 150° C. inlet CO2 temperature, after 7 min): 2.3 log
MS2 virus log-reduction ([4]; CO2 11° C. inlet temperature, 9° C. column temperature, after 6.5 minutes): 0.1 log
MS2 virus inactivation rate ([4]; CO2 (100%) at 200° C., in 3.5 minutes): 2.7 log
MS2 virus log-reduction ([4]; CO2 at 22° C., 20 l/min, after 2 minutes): 0.35 log
MS2 virus log reduction ([4]; CO2 at 22° C., 20 l/min): about 1 log
MS2 virus log-reduction ([4]; CO2 at 22° C., 27 l/min, after 2 minutes): 0.62 log
MS2 virus log reduction ([4]; CO2 at 22° C., 27 l/min): about 1 log
MS2 virus log-reduction ([4]; CO2 at 200° C., after 3 min): 3 log
MS2 virus log inactivation ([4]; CO2 at 200° C., within 5 min): 2.0 log
MS2 virus reduction ([4]; CO2 bubbles at room temperature, 10 min): 1 log

SMILES: O=C(O)O [Carbonic acid (H2CO3), Carbonic acid]
E. coli log removal (E. coli [5]): 0.08 log
log virus reduction (MS2 bacteriophage): 0.002 log

SMILES: [Cl-].[Na+] [NaCl]
inactivation of E. coli by NaCl solutions (E. coli [6]): do not inactivate E. coli
stability of MS2 virus in the presence of NaCl (MS2 virus): stable

SMILES: N#N [Nitrogen]
E. coli inactivation, log reduction [3, 11]: 1.74 log and 1.5 log
MS2 virus inactivation, log reduction [4]: 1.5 log

SMILES: O=O [Oxygen]
pH [1, 7]: 6.1
pH [1, 8]: 6
Solubility [2, 9]: 0.030 Grams dissolved in 1 Kg of wat
Solubility [2, 10]: 0.027 Grams dissolved in 1 Kg of wat
E. coli reduction ([3]; oxygen at 150° C. inlet gas temperature as printed): 0.65 log
E. coli inactivation, log reduction ([3]; oxygen bubbles at 150° C., after 3.5 minutes): 2.90 log
MS2 virus inactivation, log reduction [4]: 1.5 log
